This is an account of results in US20040103451A1, “Abscisic acid 8'-and 7'-hydroxylase genes and related sequences from plants” (priority 2003, published 2004).

One data set has as its system pJK6-29 mRNA. In kind it is cell-based, corn. As to the method:
Total RNA isolated from non-ABA-induced and ABA-induced (9 hr at […] (+)-ABA) BMS corn suspension was probed with radiolabeled pJK6-29. […] Further Northern blot analysis was carried out. In this experiment, the time course of gene expression was compared with the appearance of ABA 8'-hydroxylase activity. ABA 8'-hydroxylase activity was determined by in vitro assay (see Krochko J. E., et al., 1998, Plant Physiol 118: 849-860) with isolated microsomes isolated from BMS corn suspension cells at defined periods after the addition of 200 μM (+)-ABA. Enzyme activity was assayed at 0 (control), 3, 6, 9, 12, 16, 20.5, 25.5 and 28.5 hours after the addition of (+)-ABA. Total RNA was extracted from duplicate tissue samples and expression of the P450 clone, pJK6-29, was determined by Northern blot analysis. The time-course of mRNA induction for pJK6-29 is consistent with the appearance of ABA 8'-hydroxylase activity (FIG. 5).

A further data set deals with CYP72A7. The data set is described as follows: biotransformation of (+)-ABA by yeast expressing CYP72A7, LC/MS/MS of culture media. In kind it is cell-based, Arabidopsis thaliana. As to the method: FIG. 6. Heterologous expression of an Arabidopsis P450 ABA 7′-hydroxylase activity in yeast. The CYP72A7 cDNA from Arabidopsis thaliana was inserted into the pYeDP60 vector, transformed into the WAT11 yeast strain (but not the WAT21 yeast strain) and analyzed for the ability to metabolize (+)-ABA. The biotransformation of (+)-ABA to 7′-hydroxyABA was assessed by High Performance Liquid Chromatography—Mass Spectrometry. (HPLC/MS/MS) 7′-hydroxyABA was excreted into the media. Measured activity was limited by access of enzyme to the substrate (ABA).
For yeast expression, the cDNAs were transferred into the expression vector pYeDP60 (Pompon D., et al., 1996, Method Enzymol 272: 51-64), and purified recombinant plasmid was subsequently transformed into WAT 11 and WAT 21 yeast strains over-expressing the Arabidopsis cytochrome P450 reductases, CTR1 and CTR2, respectively (Pompon et al., ibid). […]
For expression analysis the cultures were grown for two days on SC minus URA agar plates at 30° C. […] One to 10 mls of the sample was loaded onto an Oasis HLB column (Waters) to purify ABA and ABA-metabolites and the resulting eluant was analyzed by LC/MS/MS.

For data set [1], the system named is ABA 8′-hydroxylase. The settings on record: cited from earlier work; for inhibition of induction of ABA 8′-hydroxylase: corn suspension cells.
Data set [2] concerns ABA 8′-hydroxylase. The following applies: microsomal enzyme, BMS corn suspension cells; cited from earlier work.

For the compound `CC1=CC(=O)CC(C)(C)[C@@]1(O)/C=C/C(C)=C\C(=O)O` [(+)-ABA, S-(+)-abscisic acid], in the data set with pJK6-29 mRNA, the “regulation of pJK6-29 P450 mRNA expression” value was “upregulated”. Further, in the data set on CYP72A7 (WAT21 yeast strain), the ABA hydroxylase activity result is reported as “did not support any ABA hydroxylase activity”. In the data set on CYP72A7 (pYeDP60.Ath30-2 in WAT11 yeast strain, (+)-ABA 20 μM to 50 μM, 24 hours), the “ABA 7′-hydroxylase activity (conversion to 7′-hydroxyABA)” value is given as “ABA 7′-hydroxylase activity was demonstrated”. Besides, in the data set with ABA 8′-hydroxylase [1] (BMS corn suspension culture medium), the “time of peak ABA 8′-hydroxylase activity after addition of (+)-ABA” value is 16 h. In addition, the “induction of ABA 8′-hydroxylase” value in the data set with ABA 8′-hydroxylase [1] (maize BMS suspension cultured cells) is listed as “induced”.

Consider `[C-]#[O+]` [CO], for which the “inhibition of ABA 8′-hydroxylase” value in the data set with ABA 8′-hydroxylase [2] is “inhibited”.

In the case of `Nc1ncnc2c1ncn2[C@@H]1O[C@H](CO)C[C@H]1O` [cordecypin], the “inhibition of induction of ABA 8′-hydroxylase” value in the data set with ABA 8′-hydroxylase [1] is given as “inhibited”.

Consider `C[C@@H]1C[C@@H]([C@H](O)CC2CC(=O)NC(=O)C2)C(=O)[C@@H](C)C1` [cycloheximide], for which the “inhibition of induction of ABA 8′-hydroxylase” value in the data set with ABA 8′-hydroxylase [1] was “inhibited”.

Consider `Clc1ccc(N2N=N[C@@H]3[C@@H]4C[C@@H]([C@H]5N=N[C@@H]45)[C@@H]32)cc1` [tetcyclacis], for which, in the data set on ABA 8′-hydroxylase [2], the “inhibition of ABA 8′-hydroxylase” value was “inhibited”.

Regarding “oxidized cytochrome c: inhibitor of ABA 8′-hydroxylase”, the “inhibition of ABA 8′-hydroxylase” value in the data set with ABA 8′-hydroxylase [2] is “inhibited”.
